Read-outs that look alike come from different tables or passages of the source.

Assay [1] deals with T1, ALK (Homo sapiens, UniProt Q9UM73).
T1 construct: host or cells: baculovirus expression system
The assay is described as follows: ALK Kinase Assay (ELISA/TRF, PLC-γ substrate). The class given is biochemical. To be noted: read-out: ALK Potency. In outline: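 Time-resolved fluorescence ELISA using Eu-N1 PT66 antibody to detect phosphorylated PLC-γ (coated at 10 μg/mL). Enzyme at 30 ng/ml ALK; 15 min incubation, 37° C.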
Background: ELISA stands for enzyme-linked immunosorbent assay.

In assay [2] the target is T2, JAK2 (Homo sapiens, UniProt O60674).
T2 construct: host or cells: baculovirus expression system
T2 sequence (O60674 whole entry): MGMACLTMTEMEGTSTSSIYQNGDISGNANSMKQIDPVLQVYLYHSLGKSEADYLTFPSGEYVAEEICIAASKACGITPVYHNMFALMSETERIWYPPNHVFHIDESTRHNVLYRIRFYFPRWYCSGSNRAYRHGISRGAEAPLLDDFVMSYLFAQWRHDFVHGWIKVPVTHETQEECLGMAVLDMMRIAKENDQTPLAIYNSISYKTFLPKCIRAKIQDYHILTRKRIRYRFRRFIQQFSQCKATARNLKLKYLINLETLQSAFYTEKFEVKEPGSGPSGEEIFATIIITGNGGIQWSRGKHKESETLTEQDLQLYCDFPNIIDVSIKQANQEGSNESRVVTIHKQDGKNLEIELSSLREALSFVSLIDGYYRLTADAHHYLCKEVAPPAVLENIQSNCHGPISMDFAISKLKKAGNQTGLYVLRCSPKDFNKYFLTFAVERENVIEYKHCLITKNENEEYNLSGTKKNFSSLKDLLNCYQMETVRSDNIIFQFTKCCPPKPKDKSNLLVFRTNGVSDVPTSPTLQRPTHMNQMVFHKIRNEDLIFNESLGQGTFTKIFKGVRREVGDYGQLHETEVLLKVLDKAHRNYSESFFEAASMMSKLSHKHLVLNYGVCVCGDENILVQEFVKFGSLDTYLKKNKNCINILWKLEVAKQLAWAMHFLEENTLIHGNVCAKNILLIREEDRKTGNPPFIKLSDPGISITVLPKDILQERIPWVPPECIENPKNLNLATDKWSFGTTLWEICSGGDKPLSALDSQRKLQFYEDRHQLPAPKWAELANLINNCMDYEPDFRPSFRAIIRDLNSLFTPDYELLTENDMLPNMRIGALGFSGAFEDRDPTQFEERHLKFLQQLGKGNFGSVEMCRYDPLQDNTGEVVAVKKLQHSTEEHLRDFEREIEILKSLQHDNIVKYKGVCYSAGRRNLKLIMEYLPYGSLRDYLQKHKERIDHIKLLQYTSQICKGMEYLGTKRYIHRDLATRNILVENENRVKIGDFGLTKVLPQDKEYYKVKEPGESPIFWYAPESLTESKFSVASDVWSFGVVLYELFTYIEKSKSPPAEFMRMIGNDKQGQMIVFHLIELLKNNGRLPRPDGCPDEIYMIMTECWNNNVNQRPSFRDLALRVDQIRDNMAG
The assay is described as follows: Recombinant Human JAK2 Kinase Assay (TRF). Particulars: read-out: JAK2 Potency. In kind it is biochemical. In a few lines:
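Europium-labelled PY100 antibody reported tyrosine phosphorylation of a Neutravidin-captured biotinyl 15-mer peptide by JAK2 (baculovirus-expressed, 15 ng/ml). Conditions: 20 mM HEPES pH 7.2, 0.2 μM ATP, 1 mM MnCl2, 0.1% BSA, DMSO 2.5% final, 20 min at room temperature.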

Setting [3] is: ALK kinase inhibition, 1 μM ATP.
Where [4] appears, read: JAK2 kinase inhibition, 0.2 μM ATP.

T1 sequence (Q9UM73 19-1620): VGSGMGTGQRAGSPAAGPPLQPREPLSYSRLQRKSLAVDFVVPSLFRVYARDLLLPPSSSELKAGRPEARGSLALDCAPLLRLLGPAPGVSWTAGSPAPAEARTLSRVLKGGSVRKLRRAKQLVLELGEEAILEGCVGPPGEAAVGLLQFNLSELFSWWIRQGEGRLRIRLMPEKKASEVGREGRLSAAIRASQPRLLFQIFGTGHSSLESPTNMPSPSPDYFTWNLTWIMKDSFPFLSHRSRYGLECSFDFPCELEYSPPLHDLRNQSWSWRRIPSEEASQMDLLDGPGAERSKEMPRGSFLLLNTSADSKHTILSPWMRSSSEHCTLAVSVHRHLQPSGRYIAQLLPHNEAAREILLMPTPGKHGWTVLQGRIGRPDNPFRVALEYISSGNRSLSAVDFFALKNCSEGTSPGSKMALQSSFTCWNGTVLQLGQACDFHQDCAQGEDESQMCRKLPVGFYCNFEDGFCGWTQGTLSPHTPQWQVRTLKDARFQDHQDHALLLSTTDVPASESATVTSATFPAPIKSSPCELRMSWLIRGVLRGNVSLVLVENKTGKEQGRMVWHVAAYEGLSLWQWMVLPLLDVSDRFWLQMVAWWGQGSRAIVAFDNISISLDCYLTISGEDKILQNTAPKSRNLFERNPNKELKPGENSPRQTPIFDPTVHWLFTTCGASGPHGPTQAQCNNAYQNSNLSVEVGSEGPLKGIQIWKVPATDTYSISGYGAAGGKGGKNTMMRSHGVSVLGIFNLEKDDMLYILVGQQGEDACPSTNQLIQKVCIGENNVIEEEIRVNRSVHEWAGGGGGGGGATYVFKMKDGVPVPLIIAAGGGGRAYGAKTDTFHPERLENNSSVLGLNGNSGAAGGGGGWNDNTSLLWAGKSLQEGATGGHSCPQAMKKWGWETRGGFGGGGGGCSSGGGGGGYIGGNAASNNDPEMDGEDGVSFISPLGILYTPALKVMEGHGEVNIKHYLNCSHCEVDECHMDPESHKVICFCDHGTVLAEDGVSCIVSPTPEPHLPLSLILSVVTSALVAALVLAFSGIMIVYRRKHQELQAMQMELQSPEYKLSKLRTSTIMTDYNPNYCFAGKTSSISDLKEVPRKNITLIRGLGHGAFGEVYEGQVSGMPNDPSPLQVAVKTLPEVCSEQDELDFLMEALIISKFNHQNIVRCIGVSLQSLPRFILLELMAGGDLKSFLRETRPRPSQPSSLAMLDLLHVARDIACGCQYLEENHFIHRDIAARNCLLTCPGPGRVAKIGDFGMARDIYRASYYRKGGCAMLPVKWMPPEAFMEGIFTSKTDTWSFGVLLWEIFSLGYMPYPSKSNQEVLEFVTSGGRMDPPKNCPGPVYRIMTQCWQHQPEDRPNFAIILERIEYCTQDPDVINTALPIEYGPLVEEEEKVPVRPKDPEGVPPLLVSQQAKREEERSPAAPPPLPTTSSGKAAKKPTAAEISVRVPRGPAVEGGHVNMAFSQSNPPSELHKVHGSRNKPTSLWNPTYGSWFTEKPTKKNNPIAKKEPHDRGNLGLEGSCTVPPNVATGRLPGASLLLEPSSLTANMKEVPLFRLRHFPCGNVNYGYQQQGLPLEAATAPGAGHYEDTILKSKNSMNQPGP

`C[C@H](O)CN1CCN(c2ccc(Nc3ncc4ccc(-c5ccc(S(C)(=O)=O)cc5)n4n3)cc2)CC1` [Example 205, (S)-1-(4-{4-[7-(4-Methanesulfonyl-phenyl)-pyrrolo[2,1-f][1,2,4]triazin-2-ylamino]-phenyl}-piperazin-1-yl)-propan-2-ol]: the IC50 in assay [1] (ALK Kinase Inhibition) was 100 to 1000 nM; in assay [2] (JAK2 Kinase Inhibition) it was less than 100 nM.
As to `COc1ccccc1-c1ccc2cnc(Nc3ccc4c(c3)CS(=O)(=O)C4)nn12` [Example 659, (2,2-Dioxo-2,3-dihydro-1H-2$1(6)-benzo[c]thiophen-5-yl)-[7-(2-methoxy-phenyl)-pyrrolo[2,1-f][1,2,4]triazin-2-yl]-amine], the IC50 in assay [1] (setting [3]) and in assay [2] (setting [4]) was less than 100 nM throughout.
On to `CN1CCN(c2ccc(Nc3ncc4ccc(-c5cccc(CO)c5)n4n3)cc2)CC1` [Example 1498, (3-{2-[4-(4-Methyl-piperazin-1-yl)-phenylamino]-pyrrolo[2,1-f][1,2,4]triazin-7-yl}-phenyl)-methanol], for which the IC50 in assay [1] (ALK Kinase Inhibition) and in assay [2] (JAK2 Kinase Inhibition) was less than 100 nM each time.
Turning to “(±)-1-Fluoro-3-(4-{3-methoxy-4-[7-(2-methoxy-phenyl)-pyrrolo[2,1-f][1,2,4]triazin-2-ylamino]-phenyl}-piperidin-1-yl)-propan-2-ol [Example 825]”, the IC50 in assay [1] (setting [3]) was less than 100 nM; in assay [2] (setting [4]), 100 to 1000 nM.
Regarding `COc1cc(N2CCN(C[C@H](C)O)CC2)ccc1Nc1ncc2ccc(-c3ccccc3S(C)(=O)=O)n2n1` [Example 541, (S)-1-(4-{4-[7-(2-Methanesulfonyl-phenyl)-pyrrolo[2,1-f][1,2,4]triazin-2-ylamino]-3-methoxy-phenyl}-piperazin-1-yl)-propan-2-ol], the IC50 in assay [1] (setting [3]) lay in the range of 100 to 1000 nM; in assay [2] (setting [4]), 1000 to 10000 nM.
As to `COc1ccc(Cl)cc1-c1ccc2cnc(Nc3ccc(N4CCN(C[C@H](C)O)CC4)cc3)nn12` [Example 203, (S)-1-(4-{4-[7-(5-Chloro-2-methoxy-phenyl)-pyrrolo[2,1-f][1,2,4]triazin-2-ylamino]-phenyl}-piperazin-1-yl)-propan-2-ol], the IC50 in assay [1] (ALK Kinase Inhibition) and in assay [2] (JAK2 Kinase Inhibition) was less than 100 nM in each case.
Take `CN(c1ccccc1-c1ccc2cnc(-n3ccnc3)nn12)S(C)(=O)=O` [Example 622, N-[2-(2-Imidazol-1-yl-pyrrolo[2,1-f][1,2,4]triazin-7-yl)-phenyl]-N-methyl-methanesulfonamide]: the IC50 in assay [1] (setting [3]) is 1000 to 10000 nM; in assay [2] (setting [4]) it was less than 100 nM.
As for `CC(C)(C)NS(=O)(=O)c1cccc(-c2ccc3cnc(Nc4ccc(F)c(N5CCOCC5)c4)nn23)c1` [Example 1394, N-tert-Butyl-3-[2-(4-fluoro-3-morpholin-4-yl-phenylamino)-pyrrolo[2,1-f][1,2,4]triazin-7-yl]-benzenesulfonamide], the values for the IC50 in assay [1] (ALK Kinase Inhibition) and in assay [2] (JAK2 Kinase Inhibition) were 100 to 1000 nM and less than 100 nM, respectively.
Regarding `CC(C)(C)NS(=O)(=O)c1cccc(-c2ccc3cnc(Nc4ccc(C5CCNCC5O)cc4)nn23)c1` (stereo not shown) [Example 1014, N-tert-Butyl-3-{2-[4-(3-hydroxy-piperidin-4-yl)-phenylamino]-pyrrolo[2,1-f][1,2,4]triazin-7-yl}-benzenesulfonamide], the IC50 in assay [1] (setting [3]) and in assay [2] (setting [4]) was less than 100 nM each time.
As for `COc1ccc(-c2ccc3cnc(Nc4ccc(C5CCN(CC(N)=O)CC5)cc4OC)nn23)c(OC)c1` [Example 745, 2-(4-{4-[7-(2,4-Dimethoxy-phenyl)-pyrrolo[2,1-f][1,2,4]triazin-2-ylamino]-3-methoxy-phenyl}-piperidin-1-yl)-acetamide], the figures for the IC50 in assay [1] (setting [3]) and in assay [2] (setting [4]) were less than 100 nM and 1000 to 10000 nM, respectively.
For the molecule `COc1ccc(Nc2ncc3ccc(-c4cccc(Cl)c4)n3n2)cc1` [Example 155, [7-(3-Chloro-phenyl)-pyrrolo[2,1-f][1,2,4]triazin-2-yl]-(4-methoxy-phenyl)-amine], the IC50 is greater than 10000 nM in assay [1] (ALK Kinase Inhibition) and less than 100 nM in assay [2] (JAK2 Kinase Inhibition).
Taken in the same sequence, the figures for `COc1ccccc1-c1ccc2cnc(Nc3ccc(N4CCC(C(=O)N5CCN(C)CC5)CC4)cc3)nn12` [Example 444, (1-{4-[7-(2-Methoxy-phenyl)-pyrrolo[2,1-f][1,2,4]triazin-2-ylamino]-phenyl}-piperidin-4-yl)-(4-methyl-piperazin-1-yl)-methanone] were less than 100 nM and less than 100 nM.
Turning to `CC(C)(C)NS(=O)(=O)c1cccc(-c2ccc3cnc(Nc4cccc(N)c4)nn23)c1` [Example 896, 3-[2-(3-Amino-phenylamino)-pyrrolo[2,1-f][1,2,4]triazin-7-yl]-N-tert-butyl-benzenesulfonamide], the IC50 in assay [1] (setting [3]) was 100 to 1000 nM; in assay [2] (setting [4]), less than 100 nM.
As to `CN1CCN(c2ccc(Nc3ncc4ccc(C5=CCN(C(=O)OC(C)(C)C)CC5)n4n3)cc2)CC1` [Example 1135, 4-{2-[4-(4-Methyl-piperazin-1-yl)-phenylamino]-pyrrolo[2,1-f][1,2,4]triazin-7-yl}-3,6-dihydro-2H-pyridine-1-carboxylic acid tert-butyl ester], the IC50 in assay [1] (setting [3]) is 100 to 1000 nM; in assay [2] (setting [4]), less than 100 nM.
Consider `COc1ccc(-c2ccc3cnc(Nc4ccc(N5CCN(C)CC5)cc4OC)nn23)cn1` [Example 73, [2-Methoxy-4-(4-methyl-piperazin-1-yl)-phenyl]-[7-(6-methoxy-pyridin-3-yl)-pyrrolo[2,1-f][1,2,4]triazin-2-yl]-amine], for which the IC50 in assay [1] (ALK Kinase Inhibition) and in assay [2] (JAK2 Kinase Inhibition) was less than 100 nM in each case.
Consider `CS(=O)(=O)c1cccc(-c2ccc3cnc(Nc4ccc(C5CN(CC(N)=O)C5)cc4)nn23)c1` [Example 578, 2-(3-{4-[7-(3-Methanesulfonyl-phenyl)-pyrrolo[2,1-f][1,2,4]triazin-2-ylamino]-phenyl}-azetidin-1-yl)-acetamide], for which the IC50 in assay [1] (setting [3]) is 100 to 1000 nM; in assay [2] (setting [4]), less than 100 nM.
Taken in the same sequence, the figures for `CN1CCCC1COc1cccc(Nc2ncc3ccc(-c4cnn(C)c4)n3n2)c1` (stereo not shown) [Example 1007, [7-(1-Methyl-1H-pyrazol-4-yl)-pyrrolo[2,1-f][1,2,4]triazin-2-yl]-[3-(1-methyl-pyrrolidin-2-ylmethoxy)-phenyl]-amine] were 100 to 1000 nM and less than 100 nM.
Taken in the same sequence, the figures for `COc1cc(N2CCN(c3ccccn3)CC2)ccc1Nc1ncc2ccc(-c3ccccc3OC)n2n1` [Example 994, [7-(2-Methoxy-phenyl)-pyrrolo[2,1-f][1,2,4]triazin-2-yl]-[2-methoxy-4-(4-pyridin-2-yl-piperazin-1-yl)-phenyl]-amine] were 100 to 1000 nM and 100 to 1000 nM.
The like results for `COC[C@H](O)CN1CCN(Cc2ccc(Nc3ncc4ccc(-c5ccccc5OC)n4n3)c(OC)c2)CC1` [Example 1227, (R)-1-Methoxy-3-(4-{3-methoxy-4-[7-(2-methoxy-phenyl)-pyrrolo[2,1-f][1,2,4]triazin-2-ylamino]-benzyl}-piperazin-1-yl)-propan-2-ol] were, in that order, less than 100 nM and 100 to 1000 nM.
For the molecule `CC(C)(C)NS(=O)(=O)c1cccc(-c2ccc3cnc(Nc4cccc(N5CCOCC5)c4)nn23)c1` [Example 1393, N-tert-Butyl-3-[2-(3-morpholin-4-yl-phenylamino)-pyrrolo[2,1-f][1,2,4]triazin-7-yl]-benzenesulfonamide], the IC50 in assay [1] (ALK Kinase Inhibition) is 100 to 1000 nM; in assay [2] (JAK2 Kinase Inhibition) it was less than 100 nM.
Take `COc1cc(C2CCN(CC(N)=O)CC2)ccc1Nc1ncc2ccc(-c3cccc(S(=O)(=O)NC4CC4)c3)n2n1` [Example 697, 2-(4-{4-[7-(3-Cyclopropylsulfamoyl-phenyl)-pyrrolo[2,1-f][1,2,4]triazin-2-ylamino]-3-methoxy-phenyl}-piperidin-1-yl)-acetamide]: the IC50 in assay [1] (setting [3]) was less than 100 nM; in assay [2] (setting [4]), 100 to 1000 nM.
Consider `COc1ccc(-c2ccc3cnc(Nc4ccc(C5(C#N)CCN(CC(N)=O)CC5)cc4)nn23)cn1` [Example 1545, 2-(4-Cyano-4-{4-[7-(6-methoxy-pyridin-3-yl)-pyrrolo[2,1-f][1,2,4]triazin-2-ylamino]-phenyl}-piperidin-1-yl)-acetamide], for which the IC50 in assay [1] (ALK Kinase Inhibition) is 100 to 1000 nM; in assay [2] (JAK2 Kinase Inhibition), less than 100 nM.
As to `CN1CCN(c2ccc(Nc3ncc4ccc(-c5ccc(CNCCS(C)(=O)=O)cc5)n4n3)cc2)CC1` [Example 1208, (7-{4-[(2-Methanesulfonyl-ethylamino)-methyl]-phenyl}-pyrrolo[2,1-f][1,2,4]triazin-2-yl)-[4-(4-methyl-piperazin-1-yl)-phenyl]-amine], the figures for the IC50 in assay [1] (setting [3]) and in assay [2] (setting [4]) were 100 to 1000 nM and less than 100 nM, respectively.
For the molecule `CCS(=O)(=O)c1cccc(-c2ccc3cnc(Nc4ccc5nc[nH]c5c4)nn23)c1` [Example 1311, (3H-Benzimidazol-5-yl)-[7-(3-ethanesulfonyl-phenyl)-pyrrolo[2,1-f][1,2,4]triazin-2-yl]-amine], the IC50 was 1000 to 10000 nM in assay [1] (setting [3]) and less than 100 nM in assay [2] (setting [4]).
In the case of `CN1CCN(CCCOc2ccc(Nc3ncc4ccc(-c5cccnc5)n4n3)cc2)CC1` [Example 120, {4-[3-(4-Methyl-piperazin-1-yl)-propoxy]-phenyl}-(7-pyridin-3-yl-pyrrolo[2,1-f][1,2,4]triazin-2-yl)-amine], the IC50 in assay [1] (ALK Kinase Inhibition) is 100 to 1000 nM; in assay [2] (JAK2 Kinase Inhibition), less than 100 nM.
With `Cn1ncc2ccc(Nc3ncc4ccc(-c5cccc(S(=O)(=O)CC6CC6)c5)n4n3)cc21` [Example 1321, [7-(3-Cyclopropylmethanesulfonyl-phenyl)-pyrrolo[2,1-f][1,2,4]triazin-2-yl]-(1-methyl-1H-indazol-6-yl)-amine], the IC50 in assay [1] (setting [3]) is 1000 to 10000 nM; in assay [2] (setting [4]), less than 100 nM.

The record behind these values is US8471005B2 (Cephalon, Inc., priority 2008, dated 2013).
